Laboratory results published in US10745384B2, “Indazole derivatives as αv integrin antagonists” (BRISTOL-MYERS SQUIBB COMPANY, priority 2016, dated 2020).
Counter-ions that a name gives are not always drawn.

Biological target: T1, human αVβ6 (Homo sapiens, UniProt P06756+P18564)
T1 construct: purchased R & D systems 3817-AV
Experiment: human αVβ6 HTRF binding assay
Settings: recombinant human αVβ6 integrin, FITC-conjugated fibronectin
Procedure, shortened: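 HTRF binding in 20 mM Tris pH 7.4 with 1 mM MgCl2, 1 mM MnCl2, 0.01% Tween 20 and 0.01% BSA. For αVβ6, biotinylated integrin (1.25 nM) and FITC-fibronectin (5 nM) were incubated 1 h at RT, then streptavidin-terbium (0.625 nM) was added overnight in the dark. An SPA-based fibronectin binding format was an alternative.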

T1 sequence (P06756 31-992 limits assumed): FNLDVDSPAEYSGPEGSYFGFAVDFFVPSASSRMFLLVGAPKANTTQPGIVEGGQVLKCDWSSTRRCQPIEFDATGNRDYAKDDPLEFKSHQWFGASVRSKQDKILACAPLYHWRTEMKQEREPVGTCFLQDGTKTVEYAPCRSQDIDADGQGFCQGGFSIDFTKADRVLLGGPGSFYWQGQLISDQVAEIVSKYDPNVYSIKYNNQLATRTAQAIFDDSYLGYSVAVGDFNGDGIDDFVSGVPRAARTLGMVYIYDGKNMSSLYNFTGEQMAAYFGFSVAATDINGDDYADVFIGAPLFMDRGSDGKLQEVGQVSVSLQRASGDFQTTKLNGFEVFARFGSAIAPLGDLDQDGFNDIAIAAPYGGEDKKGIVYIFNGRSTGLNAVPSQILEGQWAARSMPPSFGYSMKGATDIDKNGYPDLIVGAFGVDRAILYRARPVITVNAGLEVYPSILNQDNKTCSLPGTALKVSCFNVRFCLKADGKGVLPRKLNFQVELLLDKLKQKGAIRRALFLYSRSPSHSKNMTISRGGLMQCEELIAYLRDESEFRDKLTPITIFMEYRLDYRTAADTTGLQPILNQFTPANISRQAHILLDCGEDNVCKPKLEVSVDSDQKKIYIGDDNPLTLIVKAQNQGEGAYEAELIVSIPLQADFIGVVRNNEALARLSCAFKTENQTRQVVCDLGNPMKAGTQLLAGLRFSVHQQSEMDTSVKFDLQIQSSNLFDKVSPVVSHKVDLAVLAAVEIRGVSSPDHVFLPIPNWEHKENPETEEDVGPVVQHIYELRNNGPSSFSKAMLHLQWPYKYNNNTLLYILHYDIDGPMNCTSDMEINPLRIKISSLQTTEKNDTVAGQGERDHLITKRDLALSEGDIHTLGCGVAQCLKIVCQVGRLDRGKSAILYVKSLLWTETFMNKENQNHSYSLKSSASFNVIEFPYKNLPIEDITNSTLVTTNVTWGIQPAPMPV
T1 sequence (P18564 22-707 limits assumed): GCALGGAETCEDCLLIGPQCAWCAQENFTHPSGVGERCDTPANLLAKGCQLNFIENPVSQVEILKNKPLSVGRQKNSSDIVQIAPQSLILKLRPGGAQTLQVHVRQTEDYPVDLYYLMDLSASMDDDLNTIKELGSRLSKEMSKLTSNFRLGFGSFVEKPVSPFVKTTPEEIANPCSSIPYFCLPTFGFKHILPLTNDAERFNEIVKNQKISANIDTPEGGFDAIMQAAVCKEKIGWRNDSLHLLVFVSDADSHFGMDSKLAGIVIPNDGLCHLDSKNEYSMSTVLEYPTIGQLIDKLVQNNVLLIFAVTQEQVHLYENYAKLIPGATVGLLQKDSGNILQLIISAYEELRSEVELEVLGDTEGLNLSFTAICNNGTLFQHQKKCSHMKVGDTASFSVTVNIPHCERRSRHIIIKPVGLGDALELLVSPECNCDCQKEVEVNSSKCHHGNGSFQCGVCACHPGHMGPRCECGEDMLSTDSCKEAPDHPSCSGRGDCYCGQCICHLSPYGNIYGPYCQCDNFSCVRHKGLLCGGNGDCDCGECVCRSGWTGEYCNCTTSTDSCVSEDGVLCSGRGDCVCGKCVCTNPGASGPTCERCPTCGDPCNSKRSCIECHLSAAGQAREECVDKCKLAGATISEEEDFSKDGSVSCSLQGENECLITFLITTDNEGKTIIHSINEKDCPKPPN

| Structure (SMILES) | IC50 [µM] |
| --- | --- |
| O=C(O)C(CCc1ccccc1)Cn1ncc2cc(OCCc3ccc4c(n3)NCCC4)ccc21 (stereo not shown) [Example 73, 4-Phenyl-2-((5-(2-(5,6,7,8-tetrahydro-1,8-naphthyridin-2-yl)ethoxy)-1H-indazol-1-yl)methyl)butanoic acid] | 1.8 |
| CC(C)(C)OC(=O)N1CCC(C(CC(=O)O)n2ncc3cc(OCCc4ccc5c(n4)NCCC5)ccc32)CC1 (stereo not shown) [Example 74, 3-(1-(tert-Butoxycarbonyl)piperidin-4-yl)-3-(5-(2-(5,6,7,8-tetrahydro-1,8-naphthyridin-2-yl)ethoxy)-1H-indazol-1-yl)propanoic acid] | 0.26 |
| O=C(O)CC(c1ccncc1)n1ncc2cc(OCCc3ccc4c(n3)NCCC4)ccc21 (stereo not shown) [Example 75, 3-(Pyridin-4-yl)-3-(5-(2-(5,6,7,8-tetrahydro-1,8-naphthyridin-2-yl)ethoxy)-1H-indazol-1-yl)propanoic acid, 2 TFA] | 0.023 |
| O=C(O)CC1(n2ncc3cc(OCCc4ccc5c(n4)NCCC5)ccc32)CC1 [Example 76, 2-(1-(5-(2-(5,6,7,8-tetrahydro-1,8-naphthyridin-2-yl)elhoxy)-1H-indazol-1-yl)cyclopropyl)acetic acid, TFA] | 3.4 |
| O=C(O)CC(Cc1ccc(F)cc1)n1ncc2cc(OCCc3ccc4c(n3)NCCC4)ccc21 (stereo not shown) [Example 78, 4-(4-Fluorophenyl)-3-(5-(2-(5,6,7,8-tetrahydro-1,8-naphthyridin-2-yl)ethoxy)-1H-indazol-1-yl)butanoic acid, TFA] | 0.804 |
| COc1cnc(C(CC(=O)O)n2ncc3cc(OCCc4ccc5c(n4)NCCC5)ccc32)cn1 (stereo not shown) [Example 79, 3-(5-Methoxypyrazin-2-yl)-3-(5-(2-(5,6,7,8-tetrahydro-1,8-naphthyridin-2-yl)ethoxy)-1H-indazol-1-yl)propanoic acid, TFA] | 0.033 |
| O=C(O)CC(c1ccc2nccnc2c1)n1ncc2cc(OCCc3ccc4c(n3)NCCC4)ccc21 (stereo not shown) [Example 80, 3-(Quinoxalin-6-yl)-3-(5-(2-(5,6,7,8-tetrahydro-1,8-naphthyridin-2-yl)ethoxy)-1H-indazol-1-yl)propanoic acid, TFA] | 0.013 |
| O=C(O)C[C@@H](c1cnc2ccccc2c1)n1cc2ccc(CCc3ccc4c(n3)NCCC4)cc2n1 [Example 81, (S)-3-(Quinolin-3-yl)-3-(6-(2-(5,6,7,8-tetrahydro-1,8-naphthyridin-2-yl)ethyl)-2H-indazol-2-yl)propanoic acid] | 0.0032 |
| Cc1nc2c(cc1Cc1ccc3cn([C@@H](CC(=O)O)c4cnc5ccccc5c4)nc3c1)CCCN2 [Example 82, (S)-3-(6-((2-Methyl-5,6,7,8-tetrahydro-1,8-naphthyridin-3-yl)methyl)-2H-indazol-2-yl)-3-(quinolin-3-yl)propanoic acid] | 0.15 |
| O=C(O)C[C@@H](c1cccc(N2CCCC2=O)c1)n1ncc2cc(OCCc3ccc4c(n3)NCCC4)ccc21 [Example 84, (S)-3-(3-(2-Oxopyrrolidin-1-yl)phenyl)-3-(5-(2-(5,6,7,8-tetrahydro-1,8-naphthyridin-2-yl)ethoxy)-1H-indazol-1-yl)propanoic acid, TFA] | 0.12 |
| O=C(O)C[C@H](c1cccc(N2CCCC2=O)c1)n1ncc2cc(OCCc3ccc4c(n3)NCCC4)ccc21 [Example 85, (R)-3-(3-(2-Oxopyrrolidin-1-yl)phenyl)-3-(5-(2-(5,6,7,8-tetrahydro-1,8-naphthyridin-2-yl)ethoxy)-1H-indazol-1-yl)propanoic acid, TFA] | 0.0025 |
| COc1ncc(C(CC(=O)O)n2ncc3cc(OCCc4ccc5c(n4)NCCC5)ccc32)cc1F (stereo not shown) [Example 86, 3-(5-Fluoro-6-methoxypyridin-3-yl)-3-(5-(2-(5,6,7,8-tetrahydro-1,8-naphthyridin-2-yl)ethoxy)-1H-indazol-1-yl)propanoic acid, TFA] | 0.0078 |
| O=C(O)C[C@@H](c1cnc2ccccc2c1)n1cc2ccc(CCCC3CCc4cccnc4N3)cc2n1 (stereo partly drawn) [Example 88, (3S)-3-(Quinolin-3-yl)-3-(6-(3-(1,2,3,4-tetrahydro-1,8-naphthyridin-2-yl)propyl)-2H-indazol-2-yl)propanoic acid] | 0.02 |
| Cc1cc(C(CC(=O)O)n2ncc3cc(OCCc4ccc5c(n4)NCCC5)ccc32)cnc1OCC(C)(C)O (stereo not shown) [Example 90, 3-(6-(2-Hydroxy-2-methylpropoxy)-5-methylpyridin-3-yl)-3-(5-(2-(5,6,7,8-tetrahydro-1,8-naphthyridin-2-yl)ethoxy)-1H-indazol-1-yl)propanoic acid, TFA] | 0.0095 |
| O=C(O)CC(c1ccc2c(n1)NCCO2)n1ncc2cc(OCCc3ccc4c(n3)NCCC4)ccc21 (stereo not shown) [Example 91, 3-(3,4-Dihydro-2H-pyrido[3,2-b][1,4]oxazin-6-yl)-3-(5-(2-(5,6,7,8-tetrahydro-1,8-naphthyridin-2-yl)ethoxy)-1H-indazol-1-yl)propanoic acid, 2 TFA] | 0.031 |
| O=C(O)CC(c1ccnc(N2CCCC2=O)c1)n1ncc2cc(OCCc3ccc4c(n3)NCCC4)ccc21 (stereo not shown) [Example 93, 3-(2-(2-Oxopyrrolidin-1-yl)pyridin-4-yl)-3-(5-(2-(5,6,7,8-tetrahydro-1,8-naphthyridin-2-yl)ethoxy)-1H-indazol-1-yl)propanoic acid, TFA] | 0.0081 |
| O=C(O)CC(c1ccc2cnccc2c1)n1ncc2cc(OCCc3ccc4c(n3)NCCC4)ccc21 (stereo not shown) [Example 94, 3-(Isoquinolin-6-yl)-3-(5-(2-(5,6,7,8-tetrahydro-1,8-naphthyridin-2-yl)ethoxy)-1H-indazol-1-yl) propanoic acid, 2 TFA] | 0.013 |
| O=C(O)CC(c1ccc2cccnc2n1)n1ncc2cc(OCCc3ccc4c(n3)NCCC4)ccc21 (stereo not shown) [Example 96, 3-(1,8-Naphthyridin-2-yl)-3-(5-(2-(5,6,7,8-tetrahydro-1,8-naphthyridin-2-yl)ethoxy)-1H-indazol-1-yl)propanoic acid, 2 TFA] | 0.0072 |
| O=C(N[C@@H](Cn1cc2cc(OCc3ccc4c(n3)NCCC4)ccc2n1)C(=O)O)OCc1ccccc1 [Example 98, (S)-2-(((Benzyloxy)carbonyl)amino)-3-(5-((5,6,7,8-tetrahydro-1,8-naphthyridin-2-yl)methoxy)-2H-indazol-2-yl)propanoic acid] | 0.16 |
| O=C(O)C[C@H](c1cncc(CO)c1)n1ncc2cc(OCCc3ccc4c(n3)NCCC4)ccc21 [Example 99, (R)-3-(5-(Hydroxymethyl)pyridin-3-yl)-3-(5-(2-(5,6,7,8-tetrahydro-1,8-naphthyridin-2-yl)ethoxy)-1H-indazol-1-yl)propanoic acid] | 0.34 |
| O=C(O)CC(c1cnc2c(cnn2C2CCCCO2)c1)n1ncc2cc(OCCc3ccc4c(n3)NCCC4)ccc21 (stereo not shown) [Example 103, 3-(5-(2-(5,6,7,8-tetrahydro-1,8-naphthyridin-2-yl)ethoxy)-1H-indazol-1-yl)-3-(1-(tetrahydro-2H-pyran-2-yl)pyrazolo[3,4-b]pyridin-5-yl)propanoic acid, TFA] | 0.0054 |
| CN(C)Cc1cncc(C(CC(=O)O)n2ncc3cc(OCCc4ccc5c(n4)NCCC5)ccc32)c1 (stereo not shown) [Example 105, 3-(5-((Dimethylamino)methyl)pyridin-3-yl)-3-(5-(2-(5,6,7,8-tetrahydro-1,8-naphthyridin-2-yl)ethoxy)-1H-indazol-1-yl)propanoic acid] | 0.01 |
